# Experimental data: ChEMBL document CHEMBL1126354, “Structural analysis of 2-aryl-1,3-dione compounds as inhibitors of 5-lipoxygenase” (Bioorg Med Chem Lett, 1992); call rule not given here
# Biological target: T1, Polyunsaturated fatty acid 5-lipoxygenase (Rattus norvegicus) (UniProt P12527)
# T1 sequence (whole entry): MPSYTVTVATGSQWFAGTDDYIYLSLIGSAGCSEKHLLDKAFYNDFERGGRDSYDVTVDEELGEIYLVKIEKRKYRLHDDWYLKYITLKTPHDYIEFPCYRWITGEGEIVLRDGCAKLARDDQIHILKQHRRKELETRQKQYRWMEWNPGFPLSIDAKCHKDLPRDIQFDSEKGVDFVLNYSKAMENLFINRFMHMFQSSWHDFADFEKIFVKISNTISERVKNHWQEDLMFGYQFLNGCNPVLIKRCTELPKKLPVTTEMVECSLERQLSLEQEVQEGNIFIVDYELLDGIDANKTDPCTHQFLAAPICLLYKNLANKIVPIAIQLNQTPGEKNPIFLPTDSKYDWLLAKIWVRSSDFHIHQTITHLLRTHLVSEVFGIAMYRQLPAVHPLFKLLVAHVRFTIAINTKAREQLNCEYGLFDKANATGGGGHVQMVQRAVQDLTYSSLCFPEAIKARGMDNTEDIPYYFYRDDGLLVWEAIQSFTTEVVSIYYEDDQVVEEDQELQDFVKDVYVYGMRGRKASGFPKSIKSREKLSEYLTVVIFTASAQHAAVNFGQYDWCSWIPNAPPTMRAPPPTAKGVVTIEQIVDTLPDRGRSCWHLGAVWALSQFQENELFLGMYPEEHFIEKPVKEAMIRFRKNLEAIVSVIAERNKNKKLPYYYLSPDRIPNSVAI
# Test: The compound was evaluated in vitro for inhibition of 5-lipoxygenase activity in RBL-1 cells at 20 uM
# Format: cell-based
row,Structure (SMILES),inhibition [%]
1,O=C1c2ccccc2-c2ccccc2C(=O)C1c1ccccc1,50

# Biological target: T2, Polyunsaturated fatty acid 5-lipoxygenase (Rattus norvegicus, UniProt P12527)
# T2 sequence (P12527 whole entry): T1 sequence (whole entry)
# Test: The compound was evaluated in vitro for inhibition of 5-lipoxygenase activity in RBL-1 cells; No significant inhibitory activity up to 30 uM
# Format: cell-based
row,Structure (SMILES),IC50
1,O=C(O)c1ccc(C2C(=O)c3ccccc3C2=O)cc1,Not Active

# Biological target: T2, Polyunsaturated fatty acid 5-lipoxygenase
# Test: In vitro inhibition of 5-lipoxygenase activity in RBL-1 cells.
# Format: cell-based
row,Structure (SMILES),IC50 [µM]
1,CN(C)c1ccc(C2C(=O)c3ccccc3C2=O)cc1,4.5
2,O=C1c2ccccc2C(=O)C1c1ccccc1 [PHENINDIONE],15
3,O=C1c2ccc(Br)cc2C(=O)C1(F)c1ccccc1 (stereo not drawn),2.3
4,COc1ccc(C2C(=O)c3ccccc3C2=O)cc1 [ANISINDIONE],9.1
5,CCCCc1ccc(C2C(=O)CCCCCC2=O)cc1,12
6,O=C1CCCCC(=O)C1c1ccccc1,41
7,O=C1c2ccccc2C(=O)C1c1ccc(F)cc1 [FLUINDIONE],9.6
8,CSc1ccc(C2C(=O)c3ccccc3C2=O)cc1,2.7
9,O=C1CCCCC(=O)C1c1ccc2c(c1)OCO2,25
10,O=C1c2ccccc2C(=O)C1(Sc1ccccc1)c1ccccc1,4.8
11,O=C1c2ccccc2C(=O)C1(F)c1ccc2ccccc2c1,2
12,O=C1c2ccccc2C(=O)C1c1ccc(Cl)cc1 [CLORINDIONE],5
13,CSC1(c2ccccc2)C(=O)c2ccccc2C1=O,15
14,O=C1c2ccccc2C(=O)C1c1ccc2ccccc2c1,3.2
15,O=C1c2ccccc2C(=O)C1(F)c1ccccc1,1.7
16,CCCCc1ccc(C2C(=O)c3ccccc3C2=O)cc1,1.7
17,CC(C)(C)c1cc(C2C(=O)c3ccccc3C2=O)cc(C(C)(C)C)c1,2.8

# Biological target: T1, Polyunsaturated fatty acid 5-lipoxygenase (Rattus norvegicus)
# Test: The compound was evaluated in vitro for inhibition of 5-lipoxygenase activity in RBL-1 cells at 30 uM
# Format: cell-based
row,Structure (SMILES),inhibition [%]
1,O=C1c2ccccc2C(=O)C1c1cccc2ccccc12,14
2,O=C1C(c2ccccc2)=C(c2ccccc2)C(=O)C1c1ccccc1,45

# Biological target: T2, Polyunsaturated fatty acid 5-lipoxygenase
# Test: The compound was evaluated in vitro for inhibition of 5-lipoxygenase activity in RBL-1 cells.
# Format: cell-based
row,Structure (SMILES),IC50 [µM]
1,O=C1c2ccccc2C(=O)C1C1C(=O)c2ccccc2C1=O,28

# Biological target: T1, Polyunsaturated fatty acid 5-lipoxygenase (Rattus norvegicus)
# Test: The compound was evaluated in vitro for inhibition of 5-lipoxygenase activity in RBL-1 cells at 100 uM
# Format: cell-based
row,Structure (SMILES),inhibition [%]
1,O=C1CCCCCC(=O)C1c1ccccc1,45

# Biological target: T2, Polyunsaturated fatty acid 5-lipoxygenase
# Test: In vitro for inhibition of 5-lipoxygenase activity in RBL-1 cells.
# Format: cell-based
row,Structure (SMILES),IC50
1,O=C1C(c2ccccc2)C(=O)C2CC=CCC12 (stereo not drawn),Not Active
2,O=C(c1ccccc1)C(C(=O)c1ccccc1)c1ccccc1,Not Active
3,O=C1c2ccccc2[C@H](O)[C@H]1c1ccccc1,Not Active
4,O=C1C(=Cc2ccccc2)C(=O)c2ccccc21,Not Active
5,O=C1c2ccccc2[C@@H](O)[C@H]1c1ccccc1,Not Active
6,O=C1c2cccc3cccc(c23)C(=O)C1c1ccccc1,Not Active
7,COc1ccc(C=C2C(=O)c3ccccc3C2=O)cc1,Not Active
8,O=C1c2ccccc2C(=O)N1c1ccccc1 [N-PHENYL-PHTHALIMIDE],Not Active
9,O=C1CCC(=O)C1c1ccccc1,Not Active
10,O=C1CC(=O)c2ccccc21,Not Active
11,O=C1CCCC(=O)C1c1ccccc1,Not Active
12,COC1=C(c2ccccc2)C(=O)c2ccccc21,Not Active
13,C=CCC1C(=O)c2ccccc2C1=O,Not Active
14,O=C1c2ccccc2C(=O)C1(c1ccccc1)C1(c2ccccc2)C(=O)c2ccccc2C1=O,Not Active
15,O=C1c2ccccc2C(=O)C1[N+](=O)[O-],Not Active
